# Experimental data: patent publication US10072014B2 (Janssen Pharmaceutica NV, priority 2014, dated 2018)
# How the values were obtained:
# human mGlu2 receptor = molecular target: T1, human mGlu2 receptor (Homo sapiens, UniProt Q14416); test: [35S]GTPγS binding assay, negative allosteric modulation of mGluR2; format: biochemical; settings: for Emax: maximal % inhibition relative to the control glutamate response (EC80 glutamate), read-out: GTPγS-hmGluR2 anGT Emax; for IC50: membranes from CHO cells transfected with human mGlu2 receptor, glutamate 60 μM (~EC80), read-out: GTPγS-hmGluR2 anGT pIC50 (converted)
# T1 construct: expressed in transfected cells; host or cells: CHO cells
# Excerpt: The compounds provided in the present invention are negative allosteric modulators of mGluR2. These compounds appear to inhibit glutamate responses by binding to an allosteric site other than the glutamate binding site. The response of mGluR2 to a concentration of glutamate is decreased when compounds of Formula (I) are present. Compounds of Formula (I) are expected to have their effect substantially at mGluR2 by virtue of their ability to reduce the function of the receptor. The effects of negative allosteric modulators tested at mGluR2 using the [^35S]GTPγS binding assay method described below and which is suitable for the identification of such compounds, and more particularly the compounds according to Formula (I), are shown in Table 7.
# 1) [^35S]GTPγS Binding Assay
# The [^35S]GTPγS binding assay is a functional membrane-based assay used to study G-protein coupled receptor (GPCR) function whereby incorporation of a non-hydrolysable form of GTP, [^35S]GTPγS (guanosine 5′-triphosphate, labelled with […] ^35S), is measured. The G-protein a subunit catalyzes the exchange of guanosine 5′-diphosphate (GDP) by guanosine triphosphate (GTP) and on activation of the GPCR by an agonist, [^35S]GTPγS, becomes incorporated and cannot be cleaved to continue the exchange cycle (Harper (1998) Current Protocols in Pharmacology 2.6.1-10, John Wiley & Sons, Inc.). […] Here we describe the use of the [^35S]GTPγS binding assay using membranes from cells transfected with the human mGlu2 receptor and adapted from Schaffhauser et al. (Molecular Pharmacology, 2003, […]) for the detection of the negative allosteric modulation (NAM) properties of the compounds of this invention.
# CHO-cells were cultured to pre-confluence and stimulated with 5 mM butyrate for 24 h. Cells were then collected by scraping in PBS and cell suspension was centrifuged (10 min at 4000 RPM in benchtop centrifuge). Supernatant was discarded and pellet gently resuspended in 50 mM Tris-HCl, pH 7.4 by mixing with an Ultra Turrax homogenizer. The suspension was centrifuged at 12,400 RPM (Sorvall F14S-6x250Y) for 10 minutes and the supernatant discarded. The pellet was homogenized in 5 mM Tris-HCl, pH 7.4 using an Ultra Turrax homogenizer and centrifuged again (13,000 RPM, 20 min, 4° C.). The final pellet was resuspended in 50 mM Tris-HCl, pH 7.4 and stored at −80° C. in appropriate aliquots before use. Protein concentration was determined by the Bradford method (Bio-Rad, USA) with bovine serum albumin as standard.
# [^35S]GTPγS Binding Assay
# Measurement of mGluR2 negative allosteric modulatory activity of test compounds was performed as follows. Test compounds and glutamate were diluted in assay buffer containing 10 mM HEPES acid, 10 mM HEPES salt, pH 7.4, 100 mM NaCl, 3 mM MgCl2 and 10 μM GDP. Human mGlu2 receptor-containing membranes were thawed on ice and diluted in assay buffer supplemented with 18 μg/ml saponin. Membranes were pre-incubated with compound together with a predefined (˜EC80) concentration of glutamate (60 μM) for 30 min at 30° C. After addition of [^35S]GTPγS (f.c. 0.1 nM), assay mixtures were shaken briefly and further incubated to allow [^35S]GTPγS incorporation on activation (30 minutes, 30° C.). Final assay mixtures contained 7 μg of membrane protein in 10 mM HEPES acid, 10 mM HEPES salt, pH 7.4, 100 mM NaCl, 3 mM MgCl2, 10 μM GDP and 10 μg/ml saponin. Total reaction volume was 200 μl. Reactions were terminated by rapid filtration through Unifilter-96 GF/B plates (Perkin Elmer, Massachusetts, USA) using a 96-well filtermate universal harvester. Filters were washed 6 times with ice-cold 10 mM NaH2PO4/10 mM Na2HPO4, pH 7.4. Filters were then air-dried, and 30 μl of liquid scintillation cocktail (Microscint-O) was added to each well. Membrane-bound radioactivity was counted in a Topcount.
# The concentration-response curves of representative compounds of the present invention were generated using the Lexis software interface (developed at J&J). […]
# rats = test: Reversal of the effect of the mGluR2 PAM JNJ-42153605-induced inhibition of scopolamine-induced hyperlocomotion; format: in vivo; settings: Rattus norvegicus, PO, criterion for reversal: total distance >1500 cm, read-out: ED50 SCOP JNJ-42153605
# Experimental: 2) Reversal of the Effect of the mGluR2 PAM JNJ-42153605-induced Inhibition of Scopolamine-induced Hyperlocomotion Apparatus
# Motor activity was measured in microprocessor-based motor activity arenas (closed gray PVC cylinders with a height of 39 cm and a diameter of 31 cm). Each arena was placed on an infrared LED (8×8 LEDs) lit box (white PVC squared box; 40×40 cm^2; height 12.5 cm. An infrared-sensitive tube camera and a white light source were mounted to the ceiling above the observation chamber to track the animal. The total distance traveled (cm) was recorded and analyzed using the Noldus Ethovision XT Video Tracking System (Version 7.0.418; Noldus, Wageningen, The Netherlands). The intensity of the light within the activity cages (measured in the centre at the level of the floor) ranged between 4 and 8 LUX.
# The rats were pretreated with test compound or vehicle at 60 min before the start of the activity recordings and placed into individual cages. The rats were challenged with JNJ-42153605 (3-(cyclopropylmethyl)-7-(4-phenylpiperidin-1-yl)-8-(trifluoromethyl)-[1,2,4]triazolo[4,3-a]pyridine; WO2010/130424; Cid et al. J. Med. Chem. 2012, 55, 8770-8789) (20 mg/kg, i.v.) 30 min before the start of the activity recording combined with scopolamine (0.16 mg/kg, i.v.) just before the start of the activity measurements. Immediately after the injection of scopolamine, the rats were placed into the activity monitors and total distance traveled over the first 30 min was measured.
# Solvent-pretreated Control Rats.
# Animals receiving the combination of JNJ-42153605 and scopolamine (n=433) almost always traveled a distance of less than 1500 cm (<1500 cm) (only 2.5% of the control rats traveled a distance of more than 1500 cm (>1500 cm)). On the other hand, animals challenged with scopolamine alone (n=215) always traveled a total distance of more than 1500 cm (>1500 cm) and almost always (in 95.8% of the rats) a distance of more than 4400 cm (>4400 cm). […] For reversal of the inhibitory effect of JNJ-42153605 on the scopolamine-induced hyperlocomotion, the following all-or-none criteria were adopted: (1) reversal: total distance>1500 cm.
# Wiga Wistar rats = test: Reversal of LY-404039-induced decrease of palpebral opening in apomorphine-challenged rats; format: in vivo; settings: Rattus norvegicus, PO, criterion: cumulative palpebral opening score >26, read-out: ED50 APO LY-404039
# Experimental: B) In Vivo Pharmacology 1) Reversal of LY-404039-induced Decrease of Palpebral Opening in Apomorphine-challenged Rats.
# Male Wiga Wistar rats (Crl:WI; Charles River Germany; 220±40 g) were housed under standard laboratory conditions (21±2° C.; 50-65% relative humidity; light-dark cycle set at 12 h; lights on at 6.00 h) and fasted overnight prior to the start of the experiments (tap water remained available ad libitum). During the test period, they were housed in individual cages. Palpebral opening was scored every 5 min over the first hour after injection of apomorphine (1.0 mg/kg, i.v.) in animals either pretreated or not pretreated with LY-404039 (2.5 mg/kg, s.c.) at 1 h prior to the apomorphine injection. The animals were also pretreated with test compound or solvent at a predefined interval before apomorphine challenge. The score system was: (5) exophthalmos, (4) wide open, (3) open for three-quarters, (2) half open, (1) open for one-quarter, (0) closed. The scores for palpebral opening were cumulated over the 60-min observation period. A cumulative palpebral opening score>26 was selected for drug-induced reversal of the LY-404039-induced decrease of palpebral opening (occurrence in 3.2% of control animals pretreated with LY-404039 (n=154) versus in 99.5% of control rats not pretreated with LY-404039 (n=6335)). […]
# T1 sequence (Q14416 19-872): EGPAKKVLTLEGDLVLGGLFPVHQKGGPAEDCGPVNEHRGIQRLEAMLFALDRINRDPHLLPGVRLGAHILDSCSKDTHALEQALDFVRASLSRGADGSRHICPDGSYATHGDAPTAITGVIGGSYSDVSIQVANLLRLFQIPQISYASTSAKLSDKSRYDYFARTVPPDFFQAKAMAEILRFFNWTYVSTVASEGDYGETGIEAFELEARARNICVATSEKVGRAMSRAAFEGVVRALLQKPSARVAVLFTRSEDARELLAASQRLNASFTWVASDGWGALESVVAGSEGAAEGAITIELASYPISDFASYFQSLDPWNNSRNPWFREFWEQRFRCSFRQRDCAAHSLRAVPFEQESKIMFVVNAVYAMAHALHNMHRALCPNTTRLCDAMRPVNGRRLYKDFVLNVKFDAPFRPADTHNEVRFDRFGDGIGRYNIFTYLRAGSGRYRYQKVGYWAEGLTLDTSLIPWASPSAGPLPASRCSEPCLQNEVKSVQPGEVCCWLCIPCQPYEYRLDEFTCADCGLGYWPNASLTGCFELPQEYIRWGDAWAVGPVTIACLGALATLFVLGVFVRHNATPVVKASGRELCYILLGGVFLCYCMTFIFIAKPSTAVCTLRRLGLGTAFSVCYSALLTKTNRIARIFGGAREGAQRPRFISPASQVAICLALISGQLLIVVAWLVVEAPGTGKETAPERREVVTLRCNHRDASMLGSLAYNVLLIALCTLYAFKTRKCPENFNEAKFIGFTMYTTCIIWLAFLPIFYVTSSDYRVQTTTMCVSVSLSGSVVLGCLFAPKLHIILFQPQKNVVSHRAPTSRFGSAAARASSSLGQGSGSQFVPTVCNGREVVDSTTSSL
melting point [°C],Emax (human mGlu2 receptor) [%],IC50 (human mGlu2 receptor) [nM],Compound,ED50 (rats) [mg/kg],ED50 (Wiga Wistar rats) [mg/kg]
167.9,104,25.7,Cc1nc(-c2cnn3c2C(=O)N(c2ccc(C(F)(F)F)cc2)C[C@@H]3C)c[nH]1 [Compound 4],> 2.5,
280.85,109,30.9,Cc1[nH]c(-c2ccc(N)nc2)nc1-c1cnn2c1C(=O)N(c1ccc(C(F)(F)F)c(Cl)c1)C[C@@H]2C [Compound 34],> 0.63,
,106,2,C[C@H]1CN(c2ccc(C(F)(F)F)c(Cl)c2)C(=O)c2c(-c3c[nH]c(C4CC4)n3)cnn21 [Compound 25],0.726,0.79
146.2,108,5.75,Cc1cc(N2C[C@H](C)n3ncc(-c4[nH]c(C5CC5)nc4C)c3C2=O)ccc1C(F)(F)F [Compound 21],> 0.63,
278.31,110,9.12,C[C@H]1CN(c2ccc(Cl)c(Cl)c2)C(=O)c2c(-c3c[nH]c(-c4ccccn4)n3)cnn21 [Compound 18],> 0.63,
270.45,109,6.31,Cc1nc(C)c(-c2cnn3c2C(=O)N(c2ccc(C(F)(F)F)c(Cl)c2)C[C@@H]3C)[nH]1.Cl [Compound 30],1.99,
160.38,111,2.69,CC(C)c1nc(-c2cnn3c2C(=O)N(c2ccc(C(F)(F)F)c(Cl)c2)C[C@@H]3C)c[nH]1 [Compound 26],1.99,
269.39,109,15.5,Cc1[nH]c(-c2cccnc2)nc1-c1cnn2c1C(=O)N(c1ccc(C(F)(F)F)c(Cl)c1)C[C@@H]2C [Compound 32],> 0.63,
215.62,108,186,Cc1[nH]c(-c2ccc(N)nc2)nc1-c1cnn2c1C(=O)N(c1ccc(C(F)(F)F)cc1)C[C@@H]2C [Compound 16],> 0.63,
140.5,110,16.2,Cc1cc(N2C[C@H](C)n3ncc(-c4c[nH]c(-c5ccccn5)n4)c3C2=O)ccc1C(F)(F)F [Compound 22],> 0.63,
269.95,107,10.2,C[C@H]1CN(c2ccc(C(F)(F)F)c(Cl)c2)C(=O)c2c(-c3c[nH]c(C(N)=O)n3)cnn21 [Compound 31],> 0.63,
276.61,109,55,C[C@H]1CN(c2ccc(C(F)(F)F)cc2)C(=O)c2c(-c3c[nH]c(-c4ccc(N)nc4)n3)cnn21 [Compound 11],> 0.63,
286.55,106,16.2,C[C@H]1CN(c2ccc(C(F)(F)F)c(Cl)c2)C(=O)c2c(-c3c[nH]c(-c4ccc(N)nc4)n3)cnn21 [Compound 33],> 0.63,
158.23,111,3.72,Cc1nc(C2CC2)[nH]c1-c1cnn2c1C(=O)N(c1ccc(C(F)(F)F)c(Cl)c1)C[C@@H]2C [Compound 28],> 0.63,
